The source of these data is US20240050576A1, “METHODS AND COMPOUNDS FOR THE TREATMENT OF GENETIC DISEASE” (Design Therapeutics, Inc., priority 2020, published 2024).

Molecules are shown by their SMILES. Like-named read-outs stand apart in the source and are kept apart here.

The EC50 is the concentration at which the effect is half-maximal.

The test system of this assay is human FXN. Nature of the assay: FXN mRNA expression by qRT-PCR in GM15850 cells after 48 hr compound treatment. To be noted: Homo sapiens, read-out: EC50 WT (nM, 48 hr). It is filed as cell-based. The protocol: Cell culture: Cells were cultured in RPMI1640 medium+15% FBS. Cells were maintained at a density between 2e5/mL and 1e6/mL. Cells were centrifuged, resuspended in fresh medium, counted and plated at 150,000 cells per well in 100 uL in a non-coated, flat bottom tissue culture plate.
Compound treatment: 10 mM stock solution of FA GeneTAC was diluted 1:10 in DMSO followed by a 1:100 dilution in growth medium. […] Compound was then diluted at a 1:3 ratio into growth medium containing 0.01% DMSO. 5-point, 3-fold dose response curve was generated. 11 μL of 10× compound was added to wells containing 100 μL cell suspension of GM15850. 11 μL growth medium containing 0.01% DMSO was added to all wells not treated with FA GeneTAC. Cells were allowed to incubate for 48 hrs prior to cell lysis using guanidine isothiocyanate solution.
RNA isolation: Total RNA was isolated and purified in 384-well column filter plates using chaotropic salt.
qRT-PCR: qRT-PCR reactions were assembled using AgPath-ID reagents (Thermo Fisher) using 6 uL mastermix and 4 μL RNA. qRT-PCR TaqMan primer probe sets against human FXN (Assay ID Hs01075496_m1) and human GAPDH (Assay ID Hs00266705_g1) were used to measure the intended targets. qRT-PCR was run on the ThermoFisher QuantStudio 6 PRO instrument using the manufacturer's recommended cycling conditions.
Data analysis: qPCR data was analyzed using Thermo Fisher Design and Analysis software. Data was exported to Excel and hFXN expression was normalized to hGAPDH expression.
A general note: Real-time PCR tracks product formation cycle by cycle.

The mark [1] stands for this setting: GM15850 cells, 48 hr incubation, hFXN normalized to hGAPDH.

With `CC(=O)N1c2ccc(C3=CCN(C(=O)COCCOCCOCCOCCOCCOCCOCCOCCNC(=O)CCNC(=O)c4nc(NC(=O)CCNC(=O)c5cc(NC(=O)c6nc(NC(=O)CCNC(=O)c7cc(NC(=O)c8nccn8C)cn7C)cn6C)cn5C)cn4C)CC3)cc2N(Cc2ccccc2CO)C[C@@H]1C1CC1` [Compound 46], the EC50 under setting [1] was in the range of 100 to 500 nM. Still for that read-out and setting: to `CC(=O)N1c2ccc(-c3ccc(C(=O)NCCOCCOCCOCCOCCOCCOCCOCCNC(=O)CCNC(=O)c4nc(NC(=O)CCNC(=O)c5cc(NC(=O)c6nc(NC(=O)CCNC(=O)c7cc(NC(=O)c8nccn8C)cn7C)cn6C)cn5C)cn4C)cc3)cc2[C@H](Nc2ccc(Cl)cc2)C[C@@H]1C` [Compound 35, N-(5-((3-((2-((1-(4-((2S,4R)-1-acetyl-4-((4-chlorophenyl)amino)-2-methyl-1,2,3,4-tetrahydroquinolin-6-yl)phenyl)-1,27-dioxo-5,8,11,14,17,20,23-heptaoxa-2,26-diazanonacosan-29-yl)carbamoyl)-1-methyl-1H-imidazol-4-yl)amino)-3-oxopropyl)carbamoyl)-1-methyl-1H-pyrrol-3-yl)-1-methyl-4-(3-(1-methyl-4-(1-methyl-1H-imidazole-2-carboxamido)-1H-pyrrole-2-carboxamido)propanamido)-1H-imidazole-2-carboxamide] belongs less than 100 nM; to `Cc1sc2c(c1C)C(c1ccc(Cl)cc1)=N[C@@H](CC(=O)Nc1ccc(OCCOCCOCCOCCOCCOCCOCCOCC(=O)NCCCN(C)CCCNC(=O)c3cc(NC(=O)c4nc(NC(=O)CCNC(=O)c5cc(NC(=O)c6nc(NC(=O)CCNC(=O)c7cc(NC(=O)c8nccn8C)cn7C)cn6C)cn5C)cn4C)cn3C)cc1)c1nnc(C)n1-2` [Compound 57], 100 to 500 nM. Consider `CC(=O)N1c2ccc(-c3ccc(C(=O)NCCOCCOCCOCCOCCOCCC(=O)NCCCN(C)CCCNC(=O)CCNC(=O)c4nc(NC(=O)CCNC(=O)c5cc(NC(=O)c6nc(NC(=O)CCNC(=O)c7cc(NC(=O)c8nccn8C)cn7C)cn6C)cn5C)cn4C)cc3)cc2[C@H](Nc2ccc(Cl)cc2)C[C@@H]1C` [Compound 31], for which the EC50 under setting [1] was less than 100 nM. Consider `Cc1sc2c(c1C)C(c1ccc(Cl)cc1)=N[C@@H](CC(=O)Nc1ccc(OCCOCCOCCOCCOCCOCCC(=O)NCCCN(C)CCCNC(=O)c3cc(NC(=O)c4nc(NC(=O)CCNC(=O)c5cc(NC(=O)c6nc(NC(=O)CCNC(=O)c7cc(NC(=O)c8nccn8C)cn7C)cn6C)cn5C)cn4C)cn3C)cc1)c1nnc(C)n1-2` [Compound 16], for which the EC50 under setting [1] lay in the range of 100 to 500 nM. The same measure, in the same setting: then `COc1ccc2c(c1)C(c1ccc(Cl)cc1)=N[C@H](CC(=O)Nc1ccc(OCCOCCOCCOCCOCCOCCC(=O)NCCCN(C)CCCNC(=O)CCNC(=O)c3nc(NC(=O)CCNC(=O)c4cc(NC(=O)c5nc(NC(=O)CCNC(=O)c6cc(NC(=O)c7nccn7C)cn6C)cn5C)cn4C)cn3C)cc1)c1nnc(C)n1-2` [Compound 11], with greater than 500 nM.

As to `Cc1sc2c(c1C)C(c1ccc(Cl)cc1)=N[C@@H](CC(=O)Nc1ccc(OCCOCCOCCOCCOCCOCCOCCOCCOCCNC(=O)CCNC(=O)c3cc(NC(=O)c4nc(NC(=O)CCNC(=O)c5cc(NC(=O)c6nc(NC(=O)CCNC(=O)c7cc(NC(=O)c8nccn8C)cn7C)cn6C)cn5C)cn4C)cn3C)cc1)c1nnc(C)n1-2` [Compound 33], under setting [1], the EC50 is 100 to 500 nM.

Turning to `CC(=O)N1c2ccc(-c3ccc(C(=O)NCCOCCOCCOCCOCCOCCOCCOCCOCCNC(=O)c4cc(NC(=O)c5nc(NC(=O)CCNC(=O)c6cc(NC(=O)c7nc(NC(=O)CCNC(=O)[C@H](CCCNC(=N)N)NC(=O)[C@@H](N)CCCNC(=N)N)cn7C)cn6C)cn5C)cn4C)cc3)cc2[C@H](Nc2ccc(Cl)cc2)C[C@@H]1C` [Compound 75], the EC50 under setting [1] was greater than 500 nM. In the case of `Cc1sc2c(c1C)C(c1ccc(Cl)cc1)=N[C@@H](CC(=O)Nc1ccc(OCCOCCOCCOCCOCCOCCC(=O)N(C)CCCN(C)CCCNC(=O)CCNC(=O)c3nc(NC(=O)CCNC(=O)c4cc(NC(=O)c5nc(NC(=O)CCNC(=O)c6cc(NC(=O)c7nccn7C)cn6C)cn5C)cn4C)cn3C)cc1)c1nnc(C)n1-2` [Compound 53], the 50% effective concentration (EC50) under setting [1] fell in the range of 100 to 500 nM.

On to `Cc1cc(-c2nc3cnc(C4CCN(CCOCCOCCOCCOCCOCCC(=O)NCCCN(C)CCCNC(=O)CCNC(=O)c5nc(NC(=O)CCNC(=O)c6cc(NC(=O)c7nc(NC(=O)CCNC(=O)c8cc(NC(=O)c9nccn9C)cn8C)cn7C)cn6C)cn5C)CC4)cc3n2[C@@H](C)c2ccccc2)nn(C)c1=O` [Compound 9], for which, under setting [1], the concentration for a half-maximal effect (EC50) fell in the range of 100 to 500 nM.

As to `Cc1sc2c(c1C)C(c1ccc(Cl)cc1)=N[C@@H](CC(=O)Nc1ccc(OCCOCCOCCNC(=O)[C@H](CCCNC(=N)N)NC(=O)[C@H](CCCNC(=N)N)NC(=O)CCOCCOCCOCCNC(=O)CCNC(=O)c3nc(NC(=O)CCNC(=O)c4cc(NC(=O)c5nc(NC(=O)CCNC(=O)c6cc(NC(=O)c7nccn7C)cn6C)cn5C)cn4C)cn3C)cc1)c1nnc(C)n1-2` [Compound 99], the EC50 (GM15850, 48 h) was less than 100 nM. With `Cc1sc2c(c1C)C(c1ccc(Cl)cc1)=N[C@@H](CC(=O)Nc1ccc(OCCOCCOCCOCCOCCOCCC(=O)NCCCCCCCNC(=O)CCNC(=O)c3nc(NC(=O)CCNC(=O)c4cc(NC(=O)c5nc(NC(=O)CCNC(=O)c6cc(NC(=O)c7nccn7C)cn6C)cn5C)cn4C)cn3C)cc1)c1nnc(C)n1-2` [Compound 59], under setting [1], the EC50 is less than 100 nM.

For the compound `Cc1sc2c(c1C)C(c1ccc(Cl)cc1)=N[C@@H](CC(=O)Nc1ccc(OCCOCCOCCOCCOCCOCCC(=O)N(C)CCCN(C)CCCN(C)C(=O)CCNC(=O)c3nc(NC(=O)CCNC(=O)c4cc(NC(=O)c5nc(NC(=O)CCNC(=O)c6cc(NC(=O)c7nccn7C)cn6C)cn5C)cn4C)cn3C)cc1)c1nnc(C)n1-2` [Compound 54], the EC50 under setting [1] lay within 100 to 500 nM.

For `Cc1sc2c(c1C)C(c1ccc(Cl)cc1)=N[C@@H](CC(=O)NC1CCN(CCOCCOCCOCCOCCOCCC(=O)NCCCN(CCCNC(=O)CCNC(=O)c3nc(NC(=O)CCNC(=O)c4cc(NC(=O)c5nc(NC(=O)CCNC(=O)c6cc(NC(=O)c7nccn7C)cn6C)cn5C)cn4C)cn3C)CC(F)(F)F)CC1)c1nnc(C)n1-2` [Compound 101], the concentration for a half-maximal effect (EC50) under setting [1] was 100 to 500 nM. As to `Cc1sc2c(c1C)C(c1ccc(Cl)cc1)=N[C@@H](CC(=O)Nc1ccc(OCCOCCOCCOCCOCCOCCOCCOCCOCCOCCNC(=O)CCNC(=O)c3nc(NC(=O)CCNC(=O)c4cc(NC(=O)c5nc(NC(=O)CCNC(=O)c6cc(NC(=O)c7nccn7C)cn6C)cn5C)cn4C)cn3C)cc1)c1nnc(C)n1-2` [Compound 24], the concentration for a half-maximal effect (EC50) under setting [1] is less than 100 nM. On the same count and under the same terms, then `Cc1sc2c(c1C)C(c1ccc(Cl)cc1)=N[C@@H](CC(=O)Nc1ccc(OCCOCCOCCOCCOCCOCCOCCC(=O)NCCCN(C)CCCNC(=O)c3cc(NC(=O)c4nc(NC(=O)CCNC(=O)c5cc(NC(=O)c6nc(NC(=O)CCNC(=O)c7cc(NC(=O)c8nccn8C)cn7C)cn6C)cn5C)cn4C)cn3C)cc1)c1nnc(C)n1-2` [Compound 55], with 100 to 500 nM; and `Cc1sc2c(c1C)C(c1ccc(Cl)cc1)=N[C@@H](CC(=O)Nc1ccc(OCCOCCOCCOCCOCCOCCOCCNC(=O)CCNC(=O)c3nc(NC(=O)CCNC(=O)c4cc(NC(=O)c5nc(NC(=O)CCNC(=O)c6cc(NC(=O)c7nccn7C)cn6C)cn5C)cn4C)cn3C)cc1)c1nnc(C)n1-2` [Compound 22], with 100 to 500 nM; and `CC(=O)N1c2ccc(C3=CCN(C(=O)COCCOCCOCCOCCOCCOCCOCCNC(=O)CCNC(=O)c4nc(NC(=O)CCNC(=O)c5cc(NC(=O)c6nc(NC(=O)CCNC(=O)c7cc(NC(=O)c8nccn8C)cn7C)cn6C)cn5C)cn4C)CC3)cc2N(Cc2ccccc2CO)C[C@@H]1C1CC1` [Compound 45], with 100 to 500 nM. As for `Cc1sc2c(c1C)C(c1ccc(Cl)cc1)=N[C@@H](CC(=O)Nc1ccc(OCCOCCOCCOCCOCCOCCC(=O)NCCCN(C)CCCNC(=O)CCNC(=O)c3nc(NC(=O)CCNC(=O)c4cc(NC(=O)c5nc(NC(=O)CCNC(=O)c6cc(NC(=O)c7nccn7C)cn6C)cn5C)cn4C)cn3C)cc1)c1nnc(C)n1-2` [Compound 3], the EC50 under setting [1] was in the range of 100 to 500 nM. Same read-out and setting: then `Cc1sc2c(c1C)C(c1ccc(Cl)cc1)=N[C@@H](CC(=O)Nc1cccc(OCCOCCOCCOCCOCCOCCOCCOCCOCCNC(=O)CCNC(=O)c3nc(NC(=O)CCNC(=O)c4cc(NC(=O)c5nc(NC(=O)CCNC(=O)c6cc(NC(=O)c7nccn7C)cn6C)cn5C)cn4C)cn3C)c1)c1nnc(C)n1-2` [Compound 65], with 100 to 500 nM; and `Cc1noc(C)c1-c1cnc2c(-c3ccc(C(=O)NCCOCCOCCOCCOCCOCCC(=O)NCCCN(C)CCCNC(=O)CCNC(=O)c4nc(NC(=O)CCNC(=O)c5cc(NC(=O)c6nc(NC(=O)CCNC(=O)c7cc(NC(=O)c8nccn8C)cn7C)cn6C)cn5C)cn4C)cc3)cn([C@@H](C)c3ccccn3)c2c1` [Compound 8], with less than 100 nM. The same measure, in the same setting: to `Cc1sc2c(c1C)C(c1ccc(Cl)cc1)=N[C@@H](CC(=O)Nc1ccc(OCCOCCOCCOCCOCCOCCOCCOCC(=O)NCCNC(=O)CCNC(=O)c3nc(NC(=O)CCNC(=O)c4cc(NC(=O)c5nc(NC(=O)CCNC(=O)c6cc(NC(=O)c7nccn7C)cn6C)cn5C)cn4C)cn3C)cc1)c1nnc(C)n1-2` [Compound 17] belongs less than 100 nM; to `Cc1noc(C)c1-c1cnc2c(-c3ccc(C(=O)NCCOCCOCCOCCOCCOCCOCCOCCOCCNC(=O)CCNC(=O)c4nc(NC(=O)CCNC(=O)c5cc(NC(=O)c6nc(NC(=O)CCNC(=O)c7cc(NC(=O)c8nccn8C)cn7C)cn6C)cn5C)cn4C)cc3)cn([C@@H](C)c3ccccn3)c2c1` [Compound 42], less than 100 nM.
